In assay [1] the target is T1, γ-secretase (Homo sapiens, UniProt P49768).
T1 construct: endogenous in cells; host or cells: SKNBE2 human neuroblastoma cells (carrying hAPP 695 wild type as substrate)
The assay is described as follows: Screening for γ-secretase-modulating activity: Aβtotal in supernatant of SKNBE2 cells carrying hAPP 695 wild type (Alphalisa). It counts as cell-based. As to conditions: SKNBE2 human neuroblastoma cells carrying hAPP 695 wild type, overnight incubation, Aβtotal in cell supernatant. Here is the method:
(§1) Screening was carried out using SKNBE2 human neuroblastoma cells carrying the hAPP 695—wild type, grown in Dulbecco's Modified Eagle's Medium/Nutrient mixture F-12 (DMEM/NUT-mix F-12) (HAM) provided by Invitrogen (cat no. 10371-029) containing 5% Serum/Fe supplemented with 1% non-essential amino acids, 1-glutamine 2 mM, Hepes 15 mM, penicillin 50 U/ml (units/ml) en streptomycin 50 μg/ml. Cells were grown to near confluency.
(§2) The screening was performed using a modification of the assay as described in Citron et al (1997) Nature Medicine 3: 67. Briefly, cells were plated in a 384-well plate at 10^4 cells/well in Ultraculture (Lonza, BE12-725F) supplemented with 1% glutamine (Invitrogen, 25030-024), 1% non-essential amino acid (NEAA), penicillin 50 U/ml en streptomycin 50 μg/ml in the presence of test compound at different test concentrations. The cell/compound mixture was incubated overnight at 37° C., 5% CO2. The next day the media were assayed by two sandwich immuno-assays, for Aβ42 and Aβ total.
(§3) Aβtotal and Aβ42 concentrations were quantified in the cell supernatant using the Aphalisa technology (Perkin Elmer). Alphalisa is a sandwich assay using biotinylated antibody attached to streptavidin coated donorbeads and antibody conjugated to acceptor beads. In the presence of antigen, the beads come into close proximity. The excitation of the donor beads provokes the release of singlet oxygen molecules that trigger a cascade of energy transfer in the acceptor beads, resulting in light emission. To quantify the amount of Aβ42 in the cell supernatant, monoclonal antibody specific to the C-terminus of Aβ42 (JRF/cAβ42/26) was coupled to the receptor beads and biotinylated antibody specific to the N-terminus of Aβ (JRF/AβN/25) was used to react with the donor beads. To quantify the amount of Aβtotal in the cell supernatant, monoclonal antibody specific to the N-terminus of Aβ (JRF/AβN/25) was coupled to the receptor beads and biotinylated antibody specific to the mid region of Aβ (biotinylated 4G8) was used to react with the donor beads.
(§4) To obtain the values reported in Table 3, the data are calculated as percentage of the maximum amount of amyloid Beta 42 measured in the absence of the test compound. The sigmoidal dose response curves were analyzed using non-linear regression analysis with percentage of the control plotted against the log concentration of the compound. A 4-parameter equation was used to determine the IC50.
In general terms: Bead proximity is the source of the signal in Alpha formats.

In assay [2] the target is T1, γ-secretase. The assay is described as follows: Screening for γ-secretase-modulating activity: Aβ42 in supernatant of SKNBE2 cells carrying hAPP 695 wild type (Alphalisa). It counts as cell-based. As to conditions: SKNBE2 human neuroblastoma cells carrying hAPP 695 wild type, overnight incubation, Aβ42 in cell supernatant. Here is the method: as §1, §2, §3, §4

These results are taken from US20150141411A1, “SUBSTITUTED 3,4-DIHYDRO-2H-PYRIDO[1,2-A]PYRAZINE-1,6-DIONE DERIVATIVES USEFUL FOR THE TREATMENT OF (INTER ALIA) ALZHEIMER'S DISEASE” (Janssen Pharmaceuticals, Inc., priority 2012, published 2015).

The IC50 is the point on the concentration scale where inhibition reaches its midpoint. Higher therefore signals lower potency.

Consider `Cc1cn(-c2ccc3n(c2=O)CCN(C(c2ccccc2)c2cc(C(F)(F)F)cc(C(F)(F)F)c2)C3=O)cn1` (racemic) [compound 52], for which the IC50 is more than 10000 nM against γ-secretase [1] and 980 nM on γ-secretase [2].

On to `CCn1cc(C(C)N2C(=O)c3ccc(-n4cnc(C)c4)c(=O)n3CC2C)c2cc(C(F)(F)F)ccc21` (single isomer, unassigned) [compound 217], for which the values for the IC50 on γ-secretase [1] and against γ-secretase [2] were 480 nM and 3 nM, respectively.

In the case of `Cc1cn(-c2ccc3n(c2=O)CCN(CCCC(C)(C)C)C3=O)cn1` [compound 15], the IC50 against γ-secretase [1] was more than 10000 nM; at γ-secretase [2] it was 2290 nM.

Regarding `CCCc1nccn1-c1ccc2n(c1=O)CCN(CC1CC1)C2=O` [compound 17], the IC50 against γ-secretase [1] and against γ-secretase [2] was more than 10000 nM in each case.

`CCn1cc(C(C)N2C(=O)c3ccc(-n4cnc(C)c4)c(=O)n3CC2C)c2cc(Cl)ccc21` (single isomer, unassigned) [compound 249]: the IC50 at γ-secretase [1] was determined as 8000 nM; at γ-secretase [2] it was 490 nM.

With `Cc1cn(-c2ccc3n(c2=O)C[C@@H](C)N(Cc2c[nH]c4c(C(F)(F)F)cc(F)cc24)C3=O)cn1` [compound 257], the IC50 against γ-secretase [1] is more than 10000 nM; against γ-secretase [2], 40 nM.

In the case of `COc1cc2c(cc1Cl)c(C(C)N1C(=O)c3ccc(-n4cnc(C)c4)c(=O)n3C[C@H]1C)cn2C` (single isomer, unassigned) [compound 256], the IC50 is 4000 nM against γ-secretase [1] and 40 nM against γ-secretase [2].

As to `Cc1cn(-c2ccc3n(c2=O)CCN(C(c2cc(C(F)(F)F)cc(C(F)(F)F)c2)C2CCOCC2)C3=O)cn1` (centres unmarked) [compound 51], the IC50 against γ-secretase [1] was more than 10000 nM; at γ-secretase [2], 500 nM.

On to `Cc1nccn1-c1ccc2n(c1=O)CCN(Cc1cccc(-c3ccccc3)c1)C2=O` [compound 108], for which the IC50 on γ-secretase [1] is more than 10000 nM; against γ-secretase [2], 4790 nM.

Turning to `Cc1cn(-c2ccc3n(c2=O)C[C@@H](C)N(Cc2ccc(C(F)(F)F)c(N4CCCCC4)c2)C3=O)cn1` [compound 171], the IC50 is more than 10000 nM against γ-secretase [1] and 40 nM on γ-secretase [2].

Turning to `Cc1cn(-c2ccc3n(c2=O)CC(C)N(C(C)c2c[nH]c4cc(F)c(Cl)cc24)C3=O)cn1` (single isomer, unassigned) [compound 188], the IC50 on γ-secretase [1] turned out to be 4570 nM; at γ-secretase [2], 10 nM.

`CCOc1cc(C(C)N2C(=O)c3ccc(-n4cnc(C)c4)c(=O)n3C[C@H]2C)cc(C(F)(F)F)c1` (single isomer, unassigned) [compound 144]: the IC50 is more than 10000 nM on γ-secretase [1] and 130 nM on γ-secretase [2].

As to `COC[C@@H]1Cn2c(ccc(-n3cnc(C)c3)c2=O)C(=O)N1Cc1cc(C(F)(F)F)cc(C(F)(F)F)c1` [compound 47], the IC50 was more than 10000 nM on γ-secretase [1] and 260 nM against γ-secretase [2].

Regarding `Cc1cn(-c2ccc3n(c2=O)C[C@@H](C)N(Cc2cc(C(F)(F)F)ccc2C)C3=O)cn1` [compound 72], the IC50 against γ-secretase [1] is more than 10000 nM; on γ-secretase [2], 190 nM.

As for `CCC(c1cc(OC)cc(C(F)(F)F)c1)N1C(=O)c2ccc(-n3cnc(C)c3)c(=O)n2C[C@H]1C` (single isomer, unassigned) [compound 142], the results for the IC50 on γ-secretase [1] and against γ-secretase [2] were more than 10000 nM and 210 nM, respectively.

Consider `Cc1cn(-c2ccc3n(c2=O)C[C@@H](C)N(Cc2c[nH]c4ccc(OC(F)(F)F)cc24)C3=O)cn1` [compound 252], for which the IC50 was 5000 nM against γ-secretase [1] and 10 nM against γ-secretase [2].

For `Cc1cn(-c2ccc3n(c2=O)C[C@@H](C)N(Cc2cccc(OC(F)(F)F)c2)C3=O)cn1` [compound 79], the values for the IC50 at γ-secretase [1] and against γ-secretase [2] were more than 10000 nM and 280 nM, respectively.

For the compound `Cc1cn(-c2ccc3n(c2=O)C[C@@H](C)N(C(C)c2cccc(OC(F)(F)F)c2)C3=O)cn1` (single isomer, unassigned) [compound 147], the IC50 was more than 10000 nM against γ-secretase [1] and 330 nM at γ-secretase [2].

On to `Cc1cn(-c2ccc3n(c2=O)C[C@@H](C)N(Cc2ccc(C)c(OCC4CC4)c2)C3=O)cn1` [compound 162], for which the IC50 on γ-secretase [1] is more than 10000 nM; at γ-secretase [2], 100 nM.

As to `COc1cc(C)c(CN2C(=O)c3ccc(-n4cnc(C)c4)c(=O)n3C[C@H]2C)cc1C(C)C` [compound 77], the IC50 is more than 10000 nM against γ-secretase [1] and 190 nM at γ-secretase [2].

With `CCOCc1cc(CN2C(=O)c3ccc(-n4cnc(C)c4)c(=O)n3C[C@H]2C)cc(C(F)(F)F)c1` [compound 76], the IC50 is more than 10000 nM against γ-secretase [1] and 190 nM on γ-secretase [2].

Regarding `CCn1cc(C(C)N2C(=O)c3ccc(-n4cnc(C)c4)c(=O)n3CC2C)c2cc(Cl)c(F)cc21` (single isomer, unassigned) [compound 191], the IC50 is more than 10000 nM against γ-secretase [1] and 200 nM on γ-secretase [2].

Take `COc1cc(C(C)N2C(=O)c3ccc(-n4cnc(C)c4)c(=O)n3C[C@H]2C)cc(C(F)(F)F)c1` (single isomer, unassigned) [compound 149]: the half-maximal inhibitory concentration (IC50) was more than 10000 nM on γ-secretase [1] and 300 nM against γ-secretase [2].

As to `CCCc1nccn1-c1ccc2n(c1=O)CCN(CCC1CC1)C2=O` [compound 16], the IC50 against γ-secretase [1] and at γ-secretase [2] was more than 10000 nM throughout.

Regarding `Cc1cn(-c2ccc3n(c2=O)CC(C)N(Cc2cn(-c4ccccc4)c4cc(Br)ccc24)C3=O)cn1` (centres unmarked) [compound 199], the IC50 was determined as 9780 nM at γ-secretase [1] and 20 nM against γ-secretase [2].

`Cc1cn(-c2ccc3n(c2=O)CCC(C)N(Cc2cc(C(F)(F)F)cc(C(F)(F)F)c2)C3=O)cn1` (centres unmarked) [compound 123]: the values for the IC50 against γ-secretase [1] and against γ-secretase [2] were more than 10000 nM and 190 nM, respectively.

As to `Cc1cn(-c2ccc3n(c2=O)CC(C)N(C(C)c2c[nH]c4cc(F)c(Cl)cc24)C3=O)cn1` (single isomer, unassigned) [compound 187], the figures for the concentration for half-maximal inhibition (IC50) on γ-secretase [1] and against γ-secretase [2] were 6920 nM and 190 nM, respectively.

As for `Cc1cn(-c2ccc3n(c2=O)C[C@@H](C)N(C(C)c2cc(Cl)cc(Cl)c2)C3=O)cn1` (single isomer, unassigned) [compound 210], the IC50 against γ-secretase [1] is more than 10000 nM; against γ-secretase [2], 260 nM.

In the case of `Cc1cn(-c2ccc3n(c2=O)C[C@@H](C)N(CCc2cc(OC(C)C)cc(C(F)(F)F)c2)C3=O)cn1` [compound 156], the IC50 is more than 10000 nM on γ-secretase [1] and 30 nM at γ-secretase [2].

Consider `CCn1c(C)c(CN2C(=O)c3ccc(-n4cnc(C)c4)c(=O)n3C[C@H]2C)c2cc(C(F)(F)F)ccc21` [compound 182], for which the results for the IC50 against γ-secretase [1] and against γ-secretase [2] were 2510 nM and 10 nM, respectively.

Turning to `Cc1cn(-c2ccc3n(c2=O)C(C)C(C)N(Cc2cc(C(F)(F)F)cc(C(F)(F)F)c2)C3=O)cn1` (single isomer, unassigned) [14b], the IC50 against γ-secretase [1] is more than 10000 nM; against γ-secretase [2], 650 nM.

As for `COc1ccc2c(c1)c(CN1C(=O)c3ccc(-n4cnc(C)c4)c(=O)n3CC1C)cn2C(C)C` (centres unmarked) [compound 222], the IC50 was more than 10000 nM against γ-secretase [1] and 60 nM against γ-secretase [2].

For `Cc1cn(-c2ccc3n(c2=O)CCN(c2ccc(F)cc2C)C3=O)cn1` [compound 41], the IC50 against γ-secretase [1] and on γ-secretase [2] was more than 10000 nM in each case.

As for `Cc1cn(-c2ccc3n(c2=O)C[C@@H](CO)N(Cc2cc(C(F)(F)F)cc(C(F)(F)F)c2)C3=O)cn1` [compound 45], the half-inhibitory concentration (IC50) on γ-secretase [1] is more than 10000 nM; on γ-secretase [2] it was 540 nM.

Turning to `Cc1cn(-c2ccc3n(c2=O)C[C@@H](C)N(Cc2cccc(C(F)(F)F)c2C)C3=O)cn1` [compound 61], the values for the IC50 against γ-secretase [1] and against γ-secretase [2] were more than 10000 nM and 480 nM, respectively.

On to `Cc1cn(-c2ccc3n(c2=O)C[C@@H](C)N(C(C)c2cc(C(F)(F)F)cc(C(F)(F)F)c2)C3=O)cn1` (mixture of isomers) [compound 154], for which the IC50 at γ-secretase [1] is more than 10000 nM; on γ-secretase [2], 50 nM.

Consider `Cc1cn(-c2ccc3n(c2=O)CCN(Cc2cccc(C(F)(F)F)c2Cl)C3=O)cn1` [compound 64], for which the IC50 against γ-secretase [1] was more than 10000 nM; against γ-secretase [2] it was 690 nM.

`Cc1cn(-c2ccc3n(c2=O)C[C@@H](C)N(Cc2c(C)[nH]c4ccc(C(F)(F)F)cc24)C3=O)cn1` [compound 180]: the IC50 at γ-secretase [1] is 6610 nM; on γ-secretase [2] it was 10 nM.

With `Cc1ccc2cc(CN3CCn4c(ccc(-n5cnc(C)c5)c4=O)C3=O)ccc2c1` [compound 94], the IC50 was more than 10000 nM at γ-secretase [1] and 490 nM against γ-secretase [2].

With `Cc1cn(-c2ccc3n(c2=O)C[C@@H](C)N(C(C)c2cccc(OC(F)(F)F)c2)C3=O)cn1` (single isomer, unassigned) [compound 146], the concentration for half-maximal inhibition (IC50) on γ-secretase [1] is more than 10000 nM; on γ-secretase [2] it was 150 nM.
